The target in this experiment is T1, P2Y12 receptor (Homo sapiens, UniProt Q9H244).
T1 construct: expressed in transfected cells; host or cells: CHO cells (membrane preparation)
The experiment in a line: Functional inhibition of 2-Me-S-ADP induced P2Y12 signalling (35S-GTPγS, membranes from P2Y12 transfected CHO-cells). In kind it is biochemical. As to conditions: EC80 concentration of agonist 2-methyl-thio-adenosine diphosphate, 30° C., 45 min. Here is the method:
Functional inhibition of the P2Y12 receptor can be measured by in vitro assays using cell membranes from P2Y12 transfected CHO-cells, the methodology is indicated below.
Functional inhibition of 2-Me-S-ADP induced P2Y12 signalling: 5 μg of membranes were diluted in 200 μl of 200 mM NaCl, 1 mM MgCl2, 50 mM HEPES (pH 7.4), 0.01% BSA, 30 μg/ml saponin and 10 μM GDP. To this was added an EC80 concentration of agonist (2-methyl-thio-adenosine diphosphate), the required concentration of test compound and 0.1 μCi ^35S-GTPγS. The reaction was allowed to proceed at 30° C. for 45 min. Samples were then transferred on to GF/B filters using a cell harvester and washed with wash buffer (50 mM Tris (pH 7.4), 5 mM MgCl2, 50 mM NaCl). Filters were then covered with scintilant and counted for the amount of ^35S-GTPγS retained by the filter. Maximum activity was that determined in the presence of the agonist and minimum activity in the absence of the agonist following subtraction of the value determined for non-specific activity. The effect of compounds at various concentrations was plotted according to the equation […]
y=A+((B−A)/(1+((C/x)̂D)))
A is the bottom plateau of the curve i.e. the final minimum y value
B is the top of the plateau of the curve i.e. the final maximum y value
C is the x value at the middle of the curve. This represents the log EC50 value when A+B=100 […]
(In general: Binding of GTPγS marks nucleotide exchange on a G protein.)

What is called IC50 is the concentration at which inhibition is half-maximal. A low value points to higher potency.

T1 sequence (Q9H244 whole entry): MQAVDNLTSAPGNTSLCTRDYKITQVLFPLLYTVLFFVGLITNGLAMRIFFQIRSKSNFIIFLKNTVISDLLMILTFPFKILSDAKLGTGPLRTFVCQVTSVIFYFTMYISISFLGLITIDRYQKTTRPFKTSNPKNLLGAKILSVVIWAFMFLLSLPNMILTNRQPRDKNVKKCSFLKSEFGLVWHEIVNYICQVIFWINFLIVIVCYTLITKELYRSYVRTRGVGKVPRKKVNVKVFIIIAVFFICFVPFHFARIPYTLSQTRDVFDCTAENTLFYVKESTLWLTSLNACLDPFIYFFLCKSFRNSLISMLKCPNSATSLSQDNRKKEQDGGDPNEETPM

`CCOC(=O)c1cc(C#N)c(N2CCC(S(=O)(=O)NC(=O)Cc3ccc(F)cc3)CC2)nc1C` [Example 4, Ethyl 5-cyano-6-[4-({[(4-fluorophenyl)acetyl]amino}sulfonyl)piperidin-1-yl]-2-methylnicotinate]: the IC50 was 300 nM.

Regarding `CCOC(=O)c1cc(C#N)c(N2CCC(S(=O)(=O)NS(=O)(=O)Cc3ccccc3)CC2)nc1C` [Example 2, ethyl 6-(4-{[(benzylsulfonyl)amino]sulfonyl}piperidin-1-yl)-5-cyano-2-methylnicotinate], the IC50 stood at 640 nM.

(Values after patent US20080009523A1, “New Pyridine Analogues IV” (ASTRAZENECA AB, priority 2006, published 2008).)
